From patent US20160199436A1, “METHODS AND COMPOSITIONS FOR THE TREATMENT OF AMYOTROPHIC LATERAL SCLEROSIS” (University of Iowa Research Foudation, priority 2015, published 2016)
“Also recorded” adds a separate entry of the source.

What was measured:
SOD1 mice [1] = assay: Survival of SOD1 mice (ALS model), Kaplan Meier; type: in vivo, mouse
Description: (§1) In this Example, SOD1 mice, a known and accepted model of amyotrophic lateral sclerosis (ALS), were used to assess the effects of angiotensin (1-7) peptides, here TXA127 (SEQ ID NO: 1), on survival and quality of life over time. The SOD1 mouse line are known to contain a G93A mutation in their superoxide dismutase 1 (SOD1) gene, and this mutation leads to a phenotype very similar to the phenotype of a human ALS sufferer.
(§2) A total of 70 mice were used in this study, 40 SOD1 mice and 30 wild type C57BL/6J mice (all were obtained from the Jackson Laboratories). Mice were three weeks old at the beginning of the study, and osmotic minipumps were implanted in each animal. After implantation, each animal was exposed to either 500 μg/kg/day TXA127 (SEQ ID NO: 1) or saline vehicle for up to 8 weeks. After 8 weeks, surviving mice received a daily injection of either 500 μg/kg TXA127 (SEQ ID NO: 1) or vehicle.

SOD1 mice [2] = assay: ALS score (disease progression/quality of life) in SOD1 mice; type: in vivo, mouse
Description: as §1, §2
In addition to survival, disease progression/quality of life was measured over time using the rating scale described above. […] FIG. 3 further describes this effect, by showing the percentage of animals in each SOD1 group that were rated as having an ALS score of 2 or less over time.

[3] = 500 μg/kg/day TXA127 vs SOD1-vehicle, up to 30 weeks

Asp^1-Arg^2-Val^3-Tyr^4-Ile^5-His^6-Pro^7 [TXA127]
effect on survival (in words) (SOD1 mice [1]; 500 μg/kg/day TXA127): powerful survival benefit; also recorded: significant effect on survival
extension of life (median) versus vehicle treated SOD1 mice (SOD1 mice [1]; 500 μg/kg/day TXA127): 30 days
median survival (SOD1 mice [1]; 500 μg/kg/day TXA127 by osmotic minipump up to 8 weeks, then daily injection): 164 days
disease progression (summary in words) (SOD1 mice [2]; 500 μg/kg/day TXA127): delays disease progression
percentage of animals with an ALS score of 2 or less over time (FIG. 3) (SOD1 mice [2]; [3]): clearly delayed the worsening of symptoms, often by several weeks
sum of ALS scores over time (FIG. 2) (SOD1 mice [2]; [3]): significantly delaying worsening of symptoms
